“Also recorded” adds a separate entry of the source.

We go through three compounds from patent US20150335615A1, “CHOLESTEROL-LOWERING COMPOUNDS IN COMBINATION WITH LIPID METABOLISM-ALTERING COMPOUNDS OF NON-ABSORBABLE SUGARS, COMPOUNDS THAT CONVERT NH3 TO NH4+, OR HYDROGEN-GENERATING COMPOUNDS FOR THE TREATMENT OF HIGH CHOLESTEROL AND INFLAMMATION” (priority 2013, published 2015).

A short description of experiment [1]: H2 amount in mice after oral inulin. Format: in vivo. The conditions noted are these: oral administration.
Another experiment relates to F. nucleatum. The conditions noted are these: FIG. 4. As to the method: Incubate one of the periodontal bacteria for 4 hours with/without hydrogen and measure the hydrogen sulfide concentration.
Culture F. nucleatum (oral bacteria that produce H2S) overnight.
Incubate F. nucleatum in H2 or N2 condition for 4 hours.
Keep supernatant (3 ml) in 15 ml conical tube at 4° C.
Measure the H2S concentration in the conical tube (N=5, 1:10 dilution).

In experiment [2] the test system is LDLR-KO mice. The experiment in a line: Weight increase of LDLR-KO mice on western diet (Example 4). The note with it: western diet 12 weeks, atorvastatin 0.16% w/w in HFD, lactulose 3 g/kg/day oral, FIG. 9. Format: in vivo. The source says:
(§1) Animals: Homozygous LDL receptor knockout (LDLr−/−; C57BL/6) mice were purchased from the Jackson Laboratory (Bar Harbor, Me.). This genetically manipulated mouse strain is most commonly used for the pre-clinical study of high-fat diet induced hyperlipidemia and atherosclerosis. Nine weeks of age mice were separated into five groups (Groups #1-#5) and fed with normal diet (Group #1; Picolab, 5053) or high fat diet (Group #2-#5; HFD; Harlan Teklad, TD 88137) for 12 weeks. Atorvastatin (Lipitor) was added to the HFD (0.16% w/w) to Group #4 and Group #5. Lactulose (3 g/kg/day, in water solution) was orally administered every 12 hours to Group #3 and Group #5. The LDLR-KO mice were fed for three months with a normal or western diet, with or without lactulose, and with or without atorvastatin.

The subject of experiment [3] is patients suffering from minimal hepatic encephalopathy (MHE). The conditions noted are these: compared to placebo or no intervention; cited from earlier work.
The test system of experiment [4] is LDLR-KO mice. The experiment in a line: Serum lipids and Ox-LDL in LDLR-KO mice on western diet (Example 4). Format: in vivo. The note with it: LDLR-KO mice at 1.5 months and 3 months; FIGS. 10A and 10B.
Excerpt: as §1, with “atorvastatin. Analysis of serum samples: Lipids, including LDL and HDL, as well as oxidized low density lipoprotein (Ox-LDL) present in serum was measured using an ELISA kit (Cell biolabs).” for “atorvastatin.”

The next experiment deals with rats. The note with it: cited from earlier work.
Experiment [5] concerns Substance P and nerve growth factor (NGF). The experiment in a line: Pain associated factors (Substance P, NGF) in mice with pregabalin. Format: in vivo. The conditions noted are these: hydrogen generated by lactulose.
The test system of experiment [6] is LDLR knockout mice. Put plainly: Serum lipoproteins (HDL, LDL, Ox-LDL) in LDLR knockout mice on high fat diet (Example 3). In kind it is in vivo. The method, then: Low density lipoprotein receptor (LDLR) knockout mice and their wild type (C57BL6/J), were purchased from Jackson Laboratories (Bar Harbor, Me., USA). Male LDLR knockout mice (9-w old male) received control standard diet (Picolab, MO, USA; diet #5053) or high fat diet (Tekland Custom Diet, WI, USA; diet #TD88137). The LDLR mice received high fat diet were further randomly divided into four groups; G1) 20 mg/kg day atorvastatin group, G2) 400 mg/day lactulose group, G3) combination group, and G4) negative control group (no atorvastatin or lactulose). Atorvastatin was supplemented in the diet and lactulose was administered by oral gavage, twice a day. Wild type mice were maintained on the standard diet. All mice were fed with above noted respective diet for 12 weeks and sacrificed for post mortal analyses. Blood was collected by heart puncture at left ventricular on the sacrificed mice, followed flushing the blood circulation with PBS, and the aorta and liver lobes were removed for laboratory evaluations. Blood was drawn from heart in the absence of anti-coagulant agents, and the serum was prepared. High-density lipoprotein cholesterol and low-density lipoprotein (LDL) cholesterol were determined by a commercial colorimetric assay (Sigma-Aldrich, MO, USA). Oxidative-LDL was measured by ELISA (Uscn Life Science, TX, USA).

The test system of experiment [7] is LDLR knockout mice. The experiment in a line: Liver histology, fatty liver development in LDLR knockout mice on high fat diet (Example 3). In kind it is in vivo. The note with it: LDLR-KO mice, high fat diet 12 weeks; lactulose 400 mg/day oral gavage; FIG. 7. The method, then:
Low density lipoprotein receptor (LDLR) knockout mice and their wild type (C57BL6/J), were purchased from Jackson Laboratories (Bar Harbor, Me., USA). Male LDLR knockout mice (9-w old male) received control standard diet (Picolab, MO, USA; diet #5053) or high fat diet (Tekland Custom Diet, WI, USA; diet #TD88137). The LDLR mice received high fat diet were further randomly divided into four groups; G1) 20 mg/kg day atorvastatin group, G2) 400 mg/day lactulose group, G3) combination group, and G4) negative control group (no atorvastatin or lactulose). Atorvastatin was supplemented in the diet and lactulose was administered by oral gavage, twice a day. Wild type mice were maintained on the standard diet. All mice were fed with above noted respective diet for 12 weeks and sacrificed for post mortal analyses.
Blood was collected by heart puncture at left ventricular on the sacrificed mice, followed flushing the blood circulation with PBS, and the aorta and liver lobes were removed for laboratory evaluations.
Aortas and liver lobes were frozen in OCT compound (Sakura finetek, Japan).
Cryosections of aortas and liver lobes were stained with hematoxylin and eosin. Atherosclerosis legions were evaluated by Oil-Red 0 staining.

With Inulin, in experiment [1], the “amount of H2” value is on record as “elevates”.
Take hydrogen: the “production of dimethyl sulfide (DMS)” value in the experiment with F. nucleatum (F. nucleatum cultured with H2) is listed as “elevated production”. In the experiment on F. nucleatum (F. nucleatum incubated in H2 or N2 condition for 4 hours), the “Hydrogen sulfide (H2S) concentration” value is “tends to be reduced”.
As for `OC[C@H]1O[C@@H](O[C@@H]2[C@@H](CO)OC(O)(CO)[C@H]2O)[C@H](O)[C@@H](O)[C@H]1O` (mixture of isomers) [lactulose], the weight increase entry with LDLR-KO mice [2] was “moderate weight increase; also recorded: suppress weight gain”. Besides, in experiment [3], the blood ammonia levels result is listed as “reduced”, the “health-related quality of life” value is “improved”, the “progression to overt hepatic encephalopathy” value is on record as “prevented” and the “risk of no improvement in neuropsychological tests” value is given as “reduced”. Besides, the “amount of Ox-LDL in serum” value in the experiment with LDLR-KO mice [4] was “able to suppress”. For the same compound, in the experiment with rats, the “incidence of MHE” value is listed as “decreased”, the “latency of BAEP” value is given as “normalized”, the level of hyper-endotoxemia result is listed as “significantly lowered” and the level of hyperammonemia entry is reported as “significantly lowered”. Moreover, in [5], the “pregabalin-mediated suppression of pain associated factors (Substance P and nerve growth factor (NGF))” value was “additive effect”. Moreover, the “amount of HDL (good cholesterol)” value with LDLR knockout mice [6] (LDLR-KO mice, high fat diet 12 weeks, atorvastatin 20 mg/kg day in diet, lactulose 400 mg/day oral gavage, FIG. 8A) was “didn't change”. Besides, the “LDL (bad cholesterol) levels” value in the experiment on LDLR knockout mice [6] (LDLR-KO mice, high fat diet 12 weeks, atorvastatin 20 mg/kg day in diet, lactulose 400 mg/day oral gavage, FIG. 8B) is “no effects; also recorded: did not change”. Also, the “blood Ox-LDL caused by a fat diet” value in the experiment with LDLR knockout mice [6] (lactulose by itself, previously found) is on record as “can suppress”. In addition, in the experiment on LDLR knockout mice [7], the fatty liver development entry is reported as “remarkable preventative effects”.
